In paper PMC9221546, “New Phenylglycinamide Derivatives with Hybrid Structure as Candidates for New Broad-Spectrum Anticonvulsants” (Cells, 2022):

Tests used:
GABA transporter = GABA transporter binding (antagonist radioligand); conditions: 100 µM; rat cerebral cortex
Description: Binding/functional studies were carried out commercially in Eurofins Laboratories (Poitiers, France) and Eurofins Panlabs Discovery Services Taiwan, Ltd. (New Taipei City, Taiwan) using testing procedures that were reported previously (for details see Table S2).
Table S2. Radioligand binding and functional assays. […]
GABA transporter (antagonist radioligand) […]
TRPV1 (VR1) (h) (antagonist effect) […]
Assays were performed commercially in Eurofins Laboratories (Poitiers, France) or Eurofins Panlabs Discovery
Services Taiwan, Ltd. (New Taipei City, Taiwan). […]

[1] = system: fast voltage-gated sodium channels in rat prefrontal cortex pyramidal neurons; test: Patch-clamp of fast sodium currents; assay type: cell-based; conditions: control = 1.0, n = 7
Description: The methodology of slice preparation, slice preincubation, and patch-clamp technique was the same as in our previous studies. Compound 53 was tested at a concentration of 10 µM.
Thus, we determined the influence of 53 on fast voltage-gated sodium channels in rat prefrontal cortex pyramidal neurons (at a concentration of 10 μM) using the patch-clamp technique. Maximal currents were evoked by rectangular voltage steps to 0 mV. […] The effect was not strong, but statistically significant (1.0 in the control and 0.83 ± 0.03 after the application of 53, p < 0.01). It was possible to obtain partial wash-out (0.86 ± 0.03 and the current were normalized to the control level, n = 7, Figure 5).
Figure 5 (A) The influence of compound 53 on sodium current is shown on an example neuron. The current was evoked once every ten seconds by a rectangular voltage-step. […] (B) Example of the sodium current recordings in the control (black trace), after the application of the tested compound (blue trace), and after wash-out (red trace). (C) The averaged normalized maximal current amplitudes in the control, in the presence of 53, and after wash-out. The data were analyzed with a nonparametric repeated measures ANOVA followed by Dunn’s post hoc test. * p < 0.01 (n = 7).

[2] = PAMPA permeability (Pre-coated PAMPA Plate System Gentest); assay type: in vitro ADME; conditions: read-out: Pe (permeability coefficient) ± SD
Description: Caffeine (CFN) and norfloxacin (NFX) were used as the high- and low-permeable references, respectively.

SMILES | % Inhibition of Control Specific Binding, GABA transporter (GABA transporter) | normalized maximal amplitude of sodium current after application ([1]; 10 μM) | normalized maximal amplitude of sodium current after wash-out ([1]; after 10 μM) | melting point [°C] | Papp [2] [×10⁻⁶ cm/s]
CC(=O)NC(C(=O)N1CCN(c2cccc(C(F)(F)F)c2)CC1)c1ccccc1 (centres unmarked) [Compound 53, N-(2-oxo-1-phenyl-2-(4-(3-(trifluoromethyl)phenyl)piperazin-1-yl)ethyl)acetamide] | 2.8 (100) % | 0.83 ± 0.03 | 0.86 ± 0.03 | 131.8 to 132.5 | 
CC(=O)NC(C(=O)N1CCN(c2cccc(OC(F)(F)F)c2)CC1)c1ccccc1 (centres unmarked) [Compound 60, N-(2-oxo-1-phenyl-2-(4-(3-(trifluoromethoxy)phenyl)piperazin-1-yl)ethyl)acetamide] |  |  |  |  | 9.15 ± 0.78
